Results reported in publication PMC8258795 (Computational and Structural Biotechnology Journal, 2021).

Key:
[1] = target: T1, LRRK2 G2019S (Homo sapiens, UniProt Q5S007, G2019S); test: KINOMEscan competition binding assay (Eurofins DiscoverX); conditions: competition with active-site directed ligand, duplicates
Description: (§1) The six hit compounds from the virtual screening were ordered from Selleckchem (Houston, Texas, USA). […] Stocks of all compounds were shipped to Reaction Biology Corporation (Malvern, Pennsylvania, USA) and Eurofins DiscoverX (Fremont, California, USA) for IC50 and Kd determination, respectively. The IC50 and Kd assays were performed as service by the companies.
The compounds were tested at 11 different concentrations in duplicates with 3-fold serial dilution starting at 100 μM. Compounds were dissolved and diluted in 100% DMSO. […] Shortly, streptavidin-coated magnetic beads were treated with the biotinylated competitive ligand for 30 min at room temperature. The liganded beads were blocked with excess biotin and washed with blocking buffer (SeaBlock (Pierce), 1% BSA, 0.05% Tween 20, 1 mM DTT) to remove unbound ligand and to reduce non-specific binding. […] The kinase concentration in the eluates was measured by qPCR.
(§2) A specific challenge to our drug repositioning approach was the use of a homolog structure as template instead of a LRRK2 structure. To validate the virtual screening results, all six top candidates were tested for in vitro inhibition of LRRK2 kinase activity.

[2] = target: T1, LRRK2 G2019S; test: LRRK2 G2019S kinase activity inhibition, 33P-ATP P81 filter-binding (Reaction Biology); format: biochemical
Description: as §1
Compounds were dissolved and diluted in 100% DMSO. […] Compounds were delivered into the reaction mixture. After a 20 min incubation, ^33P-ATP was added to a final concentration of 10 μM to initiate the reaction. Reactions were carried out for 2 h at room temperature. The final enzyme and substrate concentrations were 20 nM and 20 μM, respectively. Kinase activity was detected by the P81 filter-binding method. The whole procedure is also described in [40].
as §2

[3] = cited from earlier work; for BBB Permeable: prediction confirmed or corrected by literature
[4] = peptide substrate, 10 μM ATP, duplicates

Row | SMILES | Kd [1] | IC50 [2, 4] | IC50 ([2]; values in text) | BBB Permeable [3] | brain penetration ([3]; statement in discussion)
1 | O=C1Nc2ccc(Cl)cc2[C@@](C#CC2CC2)(C(F)(F)F)O1 [Efavirenz] | > 100 µM | > 100 µM | – | supported by literature and Yes | –
2 | CCN(CC)CCNC(=O)c1c(C)[nH]c(/C=C2\C(=O)Nc3ccc(F)cc32)c1C [Sunitinib] | – | – | – | supported by literature and Yes | –
3 | C[C@@H](Oc1cc(-c2cnn(C3CCNCC3)c2)cnc1N)c1c(Cl)ccc(F)c1Cl [Crizotinib] | – | – | – | poor and No | –
4 | C[C@H]1Oc2cc(cnc2N)-c2c(nn(C)c2C#N)CN(C)C(=O)c2ccc(F)cc21 [Lorlatinib] | – | – | – | – | brain penetrant

Further lines, with some results ahead:

Row | Kd [1] | IC50 [2, 4] | IC50 ([2]; values in text) | SMILES | BBB Permeable [3] | brain penetration ([3]; statement in discussion)
5 | 0.79 µM | < 0.0051 µM | – | O=C1Nc2ccc(I)cc2/C1=C/c1cc(Br)c(O)c(Br)c1 [GW 5074] | – | –
6 | > 100 µM | – | 47 µM | CCCc1nc(C)c2c(=O)[nH]c(-c3cc(S(=O)(=O)N4CCN(CC)CC4)ccc3OCC)nn12 [Vardenafil] | – | –
7 | > 100 µM | > 100 µM | – | Fc1ccc([C@@H]2CCNC[C@H]2COc2ccc3c(c2)OCO3)cc1 [Paroxetine] | supported by literature and Yes | –
